Data published in paper PMC3870299, “Comparative genomics and functional analysis of rhamnose catabolic pathways and regulons in bacteria” (Frontiers in Microbiology, 2013).

Columns and labels:
[1] = target: T1, Ca_RhaEW (Chloroflexus aurantiacus, UniProt A9WGG0); experiment: coupled NADH detection at […] nm and GC-MS of products; assay type: biochemical; conditions: substrate made in situ from L-Rha by Ec_RhaA and Tm_RhaB, NAD+ 1.4 mM, Zn2+, pH 8, 30-70 C
T1 construct: gene Caur_2283; full-length, N-terminal His6 tag, expressed in E. coli, Ni-NTA purified

[2] = target: T2, Bs_RhaEW (Bacillus subtilis, UniProt P40747); experiment: coupled NADH detection at […] nm; assay type: biochemical; conditions: substrate made in situ from L-Rha by Ec_RhaA and Tm_RhaB; NAD+ 2.5 mM; Zn2+; pH 7.5; 25 C
T2 construct: gene yuxG; full-length, N-terminal His6 tag, expressed in E. coli, Ni-NTA purified

[3] = target: T3, RhaR (Chloroflexus aurantiacus, UniProt A9WGG7); experiment: EMSA, loss of RhaR-DNA binding; conditions: effector at 2 mM; RhaR 1 uM; pH 8.0; 50 C; L-rhamnulose made enzymatically from L-Rha by Ec_RhaA; Figure 5 legend prints L-rhamnose for this effect (apparent misprint)
T3 construct: gene Caur_2290

[4] = target: T4, St_RhaZ (Salmonella enterica, UniProt Q8ZKS2); experiment: coupled NADH oxidation at […] nm; assay type: biochemical; conditions: substrate made in situ by Ec_RhaA, Tm_RhaB and St_RhaD; NADH 0.25 mM; pH 7.5; 25 C; no dehydrogenase activity with NAD+
T4 construct: gene STM4044; full-length, N-terminal His6 tag, expressed in E. coli, Ni-NTA purified
T4 sequence (Q8ZKS2 1-382): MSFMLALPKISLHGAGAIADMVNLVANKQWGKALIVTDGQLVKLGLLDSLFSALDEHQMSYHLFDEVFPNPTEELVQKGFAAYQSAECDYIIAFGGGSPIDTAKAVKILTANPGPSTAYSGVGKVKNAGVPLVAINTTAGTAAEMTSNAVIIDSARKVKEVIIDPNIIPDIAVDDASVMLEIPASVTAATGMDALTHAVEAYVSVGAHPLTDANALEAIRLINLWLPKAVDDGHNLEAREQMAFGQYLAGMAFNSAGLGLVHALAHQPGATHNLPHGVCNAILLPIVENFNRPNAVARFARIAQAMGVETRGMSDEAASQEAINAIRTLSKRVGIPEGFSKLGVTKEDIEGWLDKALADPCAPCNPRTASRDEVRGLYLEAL
Description: St_RhaZ was active under these conditions

[5] = target: T5, RhaR (DeoR family) (Chloroflexus aurantiacus J-10-fl, UniProt A9WGG7 1-260); experiment: EMSA; RhaR 0.25-1 uM, no effector; poly(dI-dC); EMSA: 50 mM Tris-HCl pH 8.0, 150 mM NaCl, 5 mM MgCl2, 1 mM DTT (printed DDT), 0.05% NP-40, 2.5% glycerol, 1 ug poly(dI-dC), 0.2 nM DNA, 20 ul, 25 min at 50 C; 1.5% agarose gel at room temperature; conditions: protein: recombinant; tags: His6-Smt3 (SUMO) N-terminal tag, cleaved with Ulp1; blunt
T5 sequence: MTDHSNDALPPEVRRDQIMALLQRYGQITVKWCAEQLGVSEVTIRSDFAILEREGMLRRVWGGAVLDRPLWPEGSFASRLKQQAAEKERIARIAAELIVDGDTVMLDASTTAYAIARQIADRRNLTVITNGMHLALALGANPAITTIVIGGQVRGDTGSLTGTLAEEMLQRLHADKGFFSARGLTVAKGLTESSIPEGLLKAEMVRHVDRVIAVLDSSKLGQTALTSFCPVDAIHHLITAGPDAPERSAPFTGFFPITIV

T2 sequence (P40747 whole entry): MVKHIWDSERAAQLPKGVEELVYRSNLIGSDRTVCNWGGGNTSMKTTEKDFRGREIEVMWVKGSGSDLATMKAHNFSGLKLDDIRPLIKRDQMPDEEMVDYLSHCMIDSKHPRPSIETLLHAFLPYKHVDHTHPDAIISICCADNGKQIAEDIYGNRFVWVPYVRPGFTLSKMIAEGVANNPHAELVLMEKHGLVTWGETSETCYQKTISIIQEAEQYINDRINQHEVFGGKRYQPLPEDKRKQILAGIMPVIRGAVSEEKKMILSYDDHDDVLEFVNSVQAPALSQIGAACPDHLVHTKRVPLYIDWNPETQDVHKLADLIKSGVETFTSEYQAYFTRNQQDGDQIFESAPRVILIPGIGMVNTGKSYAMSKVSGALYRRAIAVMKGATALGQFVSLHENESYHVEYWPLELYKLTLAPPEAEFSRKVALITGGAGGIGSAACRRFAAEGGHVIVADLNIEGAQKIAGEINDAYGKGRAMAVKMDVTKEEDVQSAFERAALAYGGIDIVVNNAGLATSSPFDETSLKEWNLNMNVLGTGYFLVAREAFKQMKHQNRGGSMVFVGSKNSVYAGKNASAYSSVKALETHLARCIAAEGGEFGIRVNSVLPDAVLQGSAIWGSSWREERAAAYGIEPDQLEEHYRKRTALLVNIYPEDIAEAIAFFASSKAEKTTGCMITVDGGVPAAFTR
T1 sequence (A9WGG0 entry or part of it): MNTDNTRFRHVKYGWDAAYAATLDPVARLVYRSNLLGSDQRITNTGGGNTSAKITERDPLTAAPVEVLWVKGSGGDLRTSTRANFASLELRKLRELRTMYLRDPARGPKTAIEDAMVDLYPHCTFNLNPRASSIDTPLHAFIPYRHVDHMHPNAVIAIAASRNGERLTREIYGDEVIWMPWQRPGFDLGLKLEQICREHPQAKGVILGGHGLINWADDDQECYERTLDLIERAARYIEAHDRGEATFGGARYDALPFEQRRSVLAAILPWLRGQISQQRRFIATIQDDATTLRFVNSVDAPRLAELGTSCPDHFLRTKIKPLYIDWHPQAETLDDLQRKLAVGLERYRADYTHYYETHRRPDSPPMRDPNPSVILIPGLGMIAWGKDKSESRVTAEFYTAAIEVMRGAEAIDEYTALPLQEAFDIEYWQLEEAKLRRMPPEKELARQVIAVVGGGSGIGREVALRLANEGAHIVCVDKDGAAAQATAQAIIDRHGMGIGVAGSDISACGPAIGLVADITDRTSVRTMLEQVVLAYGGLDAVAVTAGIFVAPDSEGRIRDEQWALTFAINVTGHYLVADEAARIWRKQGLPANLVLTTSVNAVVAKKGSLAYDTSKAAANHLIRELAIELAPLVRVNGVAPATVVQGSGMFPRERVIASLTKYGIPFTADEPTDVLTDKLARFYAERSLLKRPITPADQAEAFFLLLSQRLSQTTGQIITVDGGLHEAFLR

C[C@H](O)[C@H](O)[C@@H](O)C(=O)COP(=O)(O)O [L-rhamnulose-1-P]
coupled NADH detection at 340 nm and GC-MS of products [1]: Ca_RhaEW acts in vitro to convert L-rhamnulose-1-P to L-lactate and DHAP
coupled NADH detection at 340 nm [2]: The Bs_RhaEW protein showed weak, but reproducible activity

NC(=O)c1ccc[n+]([C@@H]2O[C@H](COP(=O)(O)OP(=O)(O)OC[C@H]3O[C@@H](n4cnc5c(N)ncnc54)[C@H](O)[C@@H]3O)[C@@H](O)[C@H]2O)c1 [NAD^+]
coupled NADH detection at 340 nm and GC-MS of products ([1]; no product without NAD+, no activity with NADH): exclusion of NAD^+ which is an essential cofactor of L-lactaldehyde dehydrogenase
coupled NADH detection at 340 nm [2]: the reduction of NAD^+ or oxidation of NADH was monitored

C[C@@H]1OC(O)(CO)[C@H](O)[C@H]1O (stereo partly drawn) [L-rhamnulose]
EMSA, loss of RhaR-DNA binding [3]: L-rhamnulose abolished the specific DNA-binding ability of RhaR

NC(=O)C1=CN([C@@H]2O[C@H](COP(=O)(O)OP(=O)(O)OC[C@H]3O[C@@H](n4cnc5c(N)ncnc54)[C@H](O)[C@@H]3O)[C@@H](O)[C@H]2O)C=CC1 [NADH]
coupled NADH oxidation at 340 nm [4]: with the exception of supplying NADH as the cofactor. St_RhaZ was active under these conditions

B1: rhaR upstream 48-bp fragment (38-bp RhaR operator) (dsDNA)
DNA 1: GGGGGTTCGTAAAATCTCGTAAGTACTTGACAAATCTTGAAAAGGGGG
DNA 2: CCCCCTTTTCAAGATTTGTCAAGTACTTACGAGATTTTACGAACCCCC
binding result [5]: binds
